Assay results: patent US20080063628A1, “METHODS TO PROMOTE CELL DIFFERENTIATION” (priority 2006, published 2008)

What was measured:
Experiment in all cases: Single trichostatin A dose, 144 h follow-up, gene expression by RT-PCR (Example 6)
Assay type in all cases: cell-based, human
[1] = tested on: amniotic fluid-derived cell line; conditions: 500 nM once at 0 h
Description: (§1) Several cell lines obtained from different amniotic fluid specimens (see Example 14) and pancreas donors (see Example 13) were tested with similar results. Two lines at similar passage number but derived from different amniotic fluid specimens are shown in Table VI-A and Table VI-B for this example. One of these cell lines was also used in examples 2 and 4 above. In addition, this example also contains comparison data in Table VI-C and Table VI-D for a single pancreatic-derived stromal line grown to early and late passage number.
(§2) Amniotic fluid derived cells or pancreatic-derived stromal cells were seeded into 24-well tissue culture plates at a density of 5000/cm^2 and cultured in AMNIOMAX (Invitrogen) or DMEM with 10% FBS, respectively, under standard cell culture conditions until confluent. After the cells reached confluency, amniotic fluid derived cells were treated once at time 0 hours with 500 nM trichostatin A. Pancreas-derived stromal cells were treated once at time 0 hours with 1.25 μM trichostatin A. Samples for RT-PCR were taken daily from zero to six days at the times indicated in Table VI.
(§3) RNA samples were obtained from the treated cultures up to 144 hours after the initial addition of trichostatin A or DMSO. Culture media was removed, the cells were washed with PBS, and RLT lysis buffer containing β-mercaptoethanol (Qiagen) was added. During culture, the medium was not changed nor was freshly prepared trichostatin A added. RNA was purified using the RNeasy Mini Kit (Qiagen), and RNA quantity and quality was determined using a spectrophotometer. cDNA was made using the iScript cDNA synthesis kit (BioRad).
(§4) Samples of 20 ng cDNA were used in each reaction to determine the expression levels of the following genes in amniotic fluid-derived cells: Gata1, HNF-3 beta, Pdx-1, insulin, and Sox17. Similarly, samples of 20 ng cDNA were used in each reaction to determine the expression level of the following genes in pancreatic-derived stromal cells: glucagon, HNF-3 beta, insulin and Pdx-1. Real-Time PCR was performed on the Applied Biosystems 7500, and data was analyzed using the accompanying software according to the methods described in Example 15.
(§5) Real-time PCR amplifcation and quantitative analysis. Unless otherwise stated, all reagents were purchased from Applied Biosystems. Real-time PCR reactions were performed using the ABI PRISM™ 7500 Sequence Detection System. TAQMAN™ FAST UNIVERSAL PCR MASTER MIX™ (ABI, CA) was used with 20 ng of reverse transcribed RNA in a total reaction volume of 20 μl. Each cDNA sample was run in duplicate to allow correction of pipetting errors. Primers and FAM-labeled TAQMAN™ probes were used at concentrations of 200 nM. The level of expression for each target gene was normalized using the pre-developed Applied Biosystem's human glyceraldehyde-3-phosphate dehydrogenase (GAPDH) endogenous control kit. Primers and probes were designed using either ABI PRISM PRIMER EXPRESS™ software or a pre-developed ABI gene analysis kit. For each gene, either one of the primers or the probe were designed to be exon-boundary spanning. This eliminated the possibility of the primers/probe binding to any genomic DNA present. The primer and probe sets are listed as follows: Pdx-1 (Hs00426216), Insulin (Hs00355773), glucagon (Hs00174967), and FoxA2 (HNF 3-beta) (Hs00232764). The remaining primers were designed using the PRIMERS program (ABI, CA). After an initial 95° C. incubation for 20 sec, samples were cycled 40 times in two stages: a denaturation step at 95° C. for 3 sec, followed by an annealing/extension step at 60° C. for 30 sec.
(§6) For each primer/probe set, a cycle time value was determined as the cycle number at which the fluorescence intensity of the PCR reaction reached a specific value in the middle of the exponential region of amplification. An increase in expression of a gene corresponded to a decrease in the number of cycles required for the fluorescence intensity to reach this value.

[2] = tested on: second amniotic fluid-derived cell line; conditions: 500 nM once at 0 h
Description: as §1, §2, §3, §4, §5, §6

[3] = tested on: late passage (P14) pancreatic-derived stromal cell line; conditions: 1.25 μM once at 0 h
Description: as §1, §2, §3, §4, §5, §6

## CC(/C=C/C(=O)NO)=C\[C@@H](C)C(=O)c1ccc(N(C)C)cc1 [trichostatin A]
[1]; 24 hrs
  Gata1 gene expression: nd (not detectable at >40 cycles by RT-PCR)
  HNF (HNF-3 beta) gene expression: +++ (detectable at less than 35 cycles by RT-PCR with SE less than 0.9)
  Insulin gene expression: nd (not detectable at >40 cycles by RT-PCR)
  Pdx-1 gene expression: + (detectable between 35 cycles and 40 cycles by RT-PCR)
  sox17 gene expression: +++ (detectable at less than 35 cycles by RT-PCR with SE less than 0.9)
[1]; 48 hrs
  Gata1 gene expression: nd (not detectable at >40 cycles by RT-PCR)
  HNF (HNF-3 beta) gene expression: +++ (detectable at less than 35 cycles by RT-PCR with SE less than 0.9)
  Insulin gene expression: nd (not detectable at >40 cycles by RT-PCR)
  Pdx-1 gene expression: nd (not detectable at >40 cycles by RT-PCR)
  sox17 gene expression: +++ (detectable at less than 35 cycles by RT-PCR with SE less than 0.9)
[1]; 72 hrs
  Gata1 gene expression: nd (not detectable at >40 cycles by RT-PCR)
  HNF (HNF-3 beta) gene expression: + (detectable between 35 cycles and 40 cycles by RT-PCR)
  Insulin gene expression: + (detectable between 35 cycles and 40 cycles by RT-PCR)
  Pdx-1 gene expression: nd (not detectable at >40 cycles by RT-PCR)
  sox17 gene expression: +++ (detectable at less than 35 cycles by RT-PCR with SE less than 0.9)
[1]; 96 hrs
  Gata1 gene expression: nd (not detectable at >40 cycles by RT-PCR)
  HNF (HNF-3 beta) gene expression: nd (not detectable at >40 cycles by RT-PCR)
  Insulin gene expression: + (detectable between 35 cycles and 40 cycles by RT-PCR)
  Pdx-1 gene expression: nd (not detectable at >40 cycles by RT-PCR)
  sox17 gene expression: +++ (detectable at less than 35 cycles by RT-PCR with SE less than 0.9)
[1]; 120 hrs
  Gata1 gene expression: nd (not detectable at >40 cycles by RT-PCR)
  HNF (HNF-3 beta) gene expression: + (detectable between 35 cycles and 40 cycles by RT-PCR)
  Insulin gene expression: + (detectable between 35 cycles and 40 cycles by RT-PCR)
  Pdx-1 gene expression: nd (not detectable at >40 cycles by RT-PCR)
  sox17 gene expression: +++ (detectable at less than 35 cycles by RT-PCR with SE less than 0.9)
[1]; 144 hrs
  Gata1 gene expression: nd (not detectable at >40 cycles by RT-PCR)
  HNF (HNF-3 beta) gene expression: nd (not detectable at >40 cycles by RT-PCR)
  Insulin gene expression: + (detectable between 35 cycles and 40 cycles by RT-PCR)
  Pdx-1 gene expression: nd (not detectable at >40 cycles by RT-PCR)
  sox17 gene expression: +++ (detectable at less than 35 cycles by RT-PCR with SE less than 0.9)
[2]; 24 hrs
  Gata1 gene expression: nd (not detectable at >40 cycles by RT-PCR)
  HNF (HNF-3 beta) gene expression: +++ (detectable at less than 35 cycles by RT-PCR with SE less than 0.9)
  Insulin gene expression: nd (not detectable at >40 cycles by RT-PCR)
  Pdx-1 gene expression: + (detectable between 35 and 40 cycles by RT-PCR)
  sox17 gene expression: +++ (detectable at less than 35 cycles by RT-PCR with SE less than 0.9)
[2]; 48 hrs
  Gata1 gene expression: nd (not detectable at >40 cycles by RT-PCR)
  HNF (HNF-3 beta) gene expression: +++ (detectable at less than 35 cycles by RT-PCR with SE less than 0.9)
  Insulin gene expression: nd (not detectable at >40 cycles by RT-PCR)
  Pdx-1 gene expression: nd (not detectable at >40 cycles by RT-PCR)
  sox17 gene expression: +++ (detectable at less than 35 cycles by RT-PCR with SE less than 0.9)
[2]; 72 hrs
  Gata1 gene expression: nd (not detectable at >40 cycles by RT-PCR)
  HNF (HNF-3 beta) gene expression: + (detectable between 35 and 40 cycles by RT-PCR)
  Insulin gene expression: + (detectable between 35 and 40 cycles by RT-PCR)
  Pdx-1 gene expression: nd (not detectable at >40 cycles by RT-PCR)
  sox17 gene expression: +++ (detectable at less than 35 cycles by RT-PCR with SE less than 0.9)
[2]; 96 hrs
  Gata1 gene expression: nd (not detectable at >40 cycles by RT-PCR)
  HNF (HNF-3 beta) gene expression: + (detectable between 35 and 40 cycles by RT-PCR)
  Insulin gene expression: ++ (detectable at less than 35 cycles by RT-PCR with SE greater than 0.9)
  Pdx-1 gene expression: nd (not detectable at >40 cycles by RT-PCR)
  sox17 gene expression: +++ (detectable at less than 35 cycles by RT-PCR with SE less than 0.9)
[2]; 120 hrs
  Gata1 gene expression: nd (not detectable at >40 cycles by RT-PCR)
  HNF (HNF-3 beta) gene expression: + (detectable between 35 and 40 cycles by RT-PCR)
  Insulin gene expression: ++ (detectable at less than 35 cycles by RT-PCR with SE greater than 0.9)
  Pdx-1 gene expression: nd (not detectable at >40 cycles by RT-PCR)
  sox17 gene expression: +++ (detectable at less than 35 cycles by RT-PCR with SE less than 0.9)
[2]; 144 hrs
  Gata1 gene expression: nd (not detectable at >40 cycles by RT-PCR)
  HNF (HNF-3 beta) gene expression: + (detectable between 35 and 40 cycles by RT-PCR)
  Insulin gene expression: ++ (detectable at less than 35 cycles by RT-PCR with SE greater than 0.9)
  Pdx-1 gene expression: nd (not detectable at >40 cycles by RT-PCR)
  sox17 gene expression: +++ (detectable at less than 35 cycles by RT-PCR with SE less than 0.9)
[3]; 24 hrs
  HNF (HNF-3 beta) gene expression: + (detectable between 35 and 40 cycles RT-PCR)
  Insulin gene expression: nd (not detectable at >40 cycles by RT-PCR)
  Pdx-1 gene expression: +++ (detectable at less than 35 cycles RT-PCR with SE less than 0.9)
  glucagon gene expression: +++ (detectable at less than 35 cycles RT-PCR with SE less than 0.9)
[3]; 48 hrs
  HNF (HNF-3 beta) gene expression: nd (not detectable at >40 cycles by RT-PCR)
  Insulin gene expression: nd (not detectable at >40 cycles by RT-PCR)
  Pdx-1 gene expression: nd (not detectable at >40 cycles by RT-PCR)
  glucagon gene expression: + (detectable between 35 and 40 cycles RT-PCR)
[3]; 72 hrs
  HNF (HNF-3 beta) gene expression: nd (not detectable at >40 cycles by RT-PCR)
  Insulin gene expression: nd (not detectable at >40 cycles by RT-PCR)
  Pdx-1 gene expression: nd (not detectable at >40 cycles by RT-PCR)
  glucagon gene expression: nd (not detectable at >40 cycles by RT-PCR)
[3]; 96 hrs
  HNF (HNF-3 beta) gene expression: nd (not detectable at >40 cycles by RT-PCR)
  Insulin gene expression: nd (not detectable at >40 cycles by RT-PCR)
  Pdx-1 gene expression: nd (not detectable at >40 cycles by RT-PCR)
  glucagon gene expression: nd (not detectable at >40 cycles by RT-PCR)
[3]; 120 hrs
  HNF (HNF-3 beta) gene expression: nd (not detectable at >40 cycles by RT-PCR)
  Insulin gene expression: nd (not detectable at >40 cycles by RT-PCR)
  Pdx-1 gene expression: nd (not detectable at >40 cycles by RT-PCR)
  glucagon gene expression: nd (not detectable at >40 cycles by RT-PCR)
[3]; 144 hrs
  HNF (HNF-3 beta) gene expression: nd (not detectable at >40 cycles by RT-PCR)
  Insulin gene expression: nd (not detectable at >40 cycles by RT-PCR)
  Pdx-1 gene expression: nd (not detectable at >40 cycles by RT-PCR)
  glucagon gene expression: nd (not detectable at >40 cycles by RT-PCR)
